{"source": "paper PMC9790248", "about": "“Effects of CYP3A Inhibition, CYP3A Induction, and Gastric Acid Reduction on the Pharmacokinetics of Ripretinib, a Switch Control KIT Tyrosine Kinase Inhibitor” (Clinical Pharmacology in Drug Development, 2022)", "key": {"[1]": {"test": "Itraconazole (strong CYP3A inhibitor) DDI study, plasma pharmacokinetics", "format": "in vivo, human", "conditions": "for AUC(0-t) / AUC(0-inf) / Cmax / half-life / Tmax: both sexes, human, plasma; for AUC(0-t) / AUC(0-inf) / Cmax / half-life: po; for AUC(0-t) / AUC(0-inf) / Cmax / half-life / Tmax / CL/F, arithmetic mean (SD) / CL/F, geometric mean (CV%): fasting; for Tmax: read-out: tmax, median (min, max); for Time postdose that mean plasma concentration remained above the LLOQ: LLOQ 2.00 ng/mL", "protocol": "All studies were phase 1, fixed‐sequence, open‐label studies in healthy volunteers. One study consisted of two separate cohorts examining DDIs between ripretinib and itraconazole or pantoprazole, respectively; the rifampin study was conducted separately. Studies and cohorts were enrolled independently. Eligible participants were healthy male or female adults between 18 and 55 years of age with a body mass index (BMI) of ≥18.5 and ≤30 kg/m^2. Good health was confirmed by a physician and based on medical evaluation with no significant findings, including medical history, physical examination, laboratory tests, and 12‐lead electrocardiogram (ECG) at screening and day −1. Participants were required to abstain from alcohol, marijuana, grapefruit, Seville oranges, tangelo, star fruit, and grapefruit‐like products 14 days prior to and during the study. Participants with a positive breath test for Helicobacter pylori were excluded from the pantoprazole study.\nRipretinib and its active metabolite DP‐5439 plasma concentrations were measured using a validated high‐performance liquid chromatography (HPLC) with tandem mass spectrometry (LC‐MS/MS) assay with a lower limit of quantification (LLOQ) of 2.00 ng/mL for both analytes. In this method, the analytes (ripretinib and DP‐5439) and the internal standards (ISs; DCC‐2618‐d5 and DP‐5439‐d5) were released from human plasma samples by protein precipitation. The supernatants were chromatographed using reversed‐phase HPLC with a Betasil® C8 analytical column with deionized water (0.1% formic acid) and 40/60 acetonitrile/acetone (0.1% formic acid) as the mobile phase. Mass spectrometric detection was performed on a triple quadrupole tandem mass spectrometer API 5000 or API 5500 (Applied Biosystems/MDS Sciex, Toronto, Canada) equipped with a turbo ion spray source operated in the positive ionization mode. The source parameters were collision energy 40 eV, collision gas 6 psi, Nebulizer Gas 1, Turbo IonSpray Gas 2, and curtain gas 35 psi. Quantification was obtained by using multiple reaction monitoring mode of the transitions of mass to charge ratio [m/z] 510.3 →417 for DCC‐2618 (ripretinib), m/z 496.2 →403 for DP‐5439, m/z 515.3 →417 for DCC‐2618‐d5, and m/z 501.2 →403 for DP‐5439‐d5.\nPlasma concentration–time data were analyzed using noncompartmental methods using Phoenix® WinNonlin® v7.0 (Certara USA Inc., Princeton, New Jersey). Derived PK parameters included area under the concentration–time curve from time 0 to time t (AUC0–t) and area under the concentration–time curve from 0 to infinity (AUC0–∞), maximum observed concentration (Cmax), time of maximum observed concentration (tmax), elimination half‐life (t1/2), apparent systemic clearance, and for DP‐5439, metabolite to parent ratio for AUC0–t, AUC0–∞, and Cmax.\nThe PK population included all participants who received ≥1 dose ripretinib and had ≥1 nonmissing PK concentration in plasma reported for ripretinib or DP‐5439. The PK evaluable set included all participants in the PK population who had ripretinib PK parameters on both ripretinib dosing days, bioanalytical results for ≥75% of planned analyses, no missed ripretinib doses and ≤2 missed perpetrator (itraconazole, pantoprazole, or rifampin) doses before the second dosing day of ripretinib, and no emesis within 8 hours of ripretinib administration. […]"}, "[2]": {"test": "Concentration-corrected QT interval analysis", "format": "in vivo", "conditions": "across a range of plasma concentration; data on file", "protocol": "In the current study, itraconazole was administered as an oral solution on an empty stomach to ensure the highest oral absorption under fasting conditions and minimize gastrointestinal tract irritation during fasting. […] The tolerability of higher exposure is supported by previous safety and PK data.[7], [10] In a phase 1 study of ripretinib in patients with cancer, the maximum tolerated dose was not reached with doses up to ripretinib 200 mg twice daily.[7] Dose escalation to ripretinib 150 mg twice daily was offered to patients in a phase 1 and phase 3 clinical study after radiologic disease progression on 150 mg once daily.[7], [11] […] Steady‐state PK exposure following ripretinib 150 mg twice daily was approximately 2‐fold higher compared with ripretinib 150 mg once daily.[7], [10] […] However, the exposure–safety relationships were relatively shallow, and most AEs were Grades 1 and 2."}, "[3]": {"conditions": "cited from earlier work"}, "[4]": {"conditions": "ripretinib 50 mg single oral dose + itraconazole 200 mg QD, healthy participants (N = 20)"}, "[5]": {"conditions": "ripretinib 50 mg single oral dose alone, healthy participants (itraconazole study, N = 20)"}, "[6]": {"conditions": "ripretinib 50 mg with itraconazole 200 mg QD relative to ripretinib alone"}, "[7]": {"conditions": "20 mg once daily up to 150 mg once daily"}}, "note": "Where “and” joins values, the source holds several entries; their conditions need not be identical. Equal values may be shown once. Read-outs that look alike come from different tables or passages of the source."}
{"smiles": "CCn1c(=O)c(-c2cc(NC(=O)Nc3ccccc3)c(F)cc2Br)cc2cnc(NC)cc21", "note": "[Ripretinib]", "values": [{"measurement": "AUC(0-t)", "setting": "[1]; 50 mg, ripretinib 50 mg single oral dose alone, healthy participants (itraconazole study, N = 20), read-out: AUC0–t, arithmetic mean (SD)", "result": 4400, "unit": "ng·h/mL"}, {"measurement": "AUC(0-t)", "setting": "[1]; 50 mg, ripretinib 50 mg single oral dose alone, healthy participants (itraconazole study, N = 20), read-out: AUC0–t, geometric mean (CV%)", "result": 4060, "unit": "ng·h/mL"}, {"measurement": "AUC(0-inf)", "setting": "[1]; 50 mg, ripretinib 50 mg single oral dose alone, healthy participants (itraconazole study, N = 20), read-out: AUC0–∞, arithmetic mean (SD)", "result": 4500, "unit": "ng·h/mL"}, {"measurement": "AUC(0-inf)", "setting": "[1]; 50 mg, ripretinib 50 mg single oral dose alone, healthy participants (itraconazole study, N = 20), read-out: AUC0–∞, geometric mean (CV%)", "result": 4180, "unit": "ng·h/mL"}, {"measurement": "Cmax", "setting": "[1]; 50 mg, ripretinib 50 mg single oral dose alone, healthy participants (itraconazole study, N = 20), read-out: Cmax, arithmetic mean (SD)", "result": 321, "unit": "ng/mL"}, {"measurement": "Cmax", "setting": "[1]; 50 mg, ripretinib 50 mg single oral dose alone, healthy participants (itraconazole study, N = 20), read-out: Cmax, geometric mean (CV%)", "result": 291, "unit": "ng/mL"}, {"measurement": "half-life", "setting": "[1]; 50 mg, ripretinib 50 mg single oral dose alone, healthy participants (itraconazole study, N = 20), read-out: t1/2, arithmetic mean (SD) (converted)", "result": 17, "unit": "h"}, {"measurement": "half-life", "setting": "[1]; 50 mg, ripretinib 50 mg single oral dose alone, healthy participants (itraconazole study, N = 20), read-out: t1/2, geometric mean (CV%) (converted)", "result": 16, "unit": "h"}, {"measurement": "AUC(0-t)", "setting": "[1]; ripretinib 50 mg single oral dose + itraconazole 200 mg QD, healthy participants (N = 20), read-out: AUC0–t, arithmetic mean (SD)", "result": 8900, "unit": "ng·h/mL"}, {"measurement": "AUC(0-t)", "setting": "[1]; ripretinib 50 mg single oral dose + itraconazole 200 mg QD, healthy participants (N = 20), read-out: AUC0–t, geometric mean (CV%)", "result": 8060, "unit": "ng·h/mL"}, {"measurement": "AUC(0-inf)", "setting": "[1]; ripretinib 50 mg single oral dose + itraconazole 200 mg QD, healthy participants (N = 20), read-out: AUC0–∞, arithmetic mean (SD)", "result": 9190, "unit": "ng·h/mL"}, {"measurement": "AUC(0-inf)", "setting": "[1]; ripretinib 50 mg single oral dose + itraconazole 200 mg QD, healthy participants (N = 20), read-out: AUC0–∞, geometric mean (CV%)", "result": 8310, "unit": "ng·h/mL"}, {"measurement": "Cmax", "setting": "[1]; ripretinib 50 mg single oral dose + itraconazole 200 mg QD, healthy participants (N = 20), read-out: Cmax, arithmetic mean (SD)", "result": 404, "unit": "ng/mL"}, {"measurement": "Cmax", "setting": "[1]; ripretinib 50 mg single oral dose + itraconazole 200 mg QD, healthy participants (N = 20), read-out: Cmax, geometric mean (CV%)", "result": 395, "unit": "ng/mL"}, {"measurement": "half-life", "setting": "[1]; ripretinib 50 mg single oral dose + itraconazole 200 mg QD, healthy participants (N = 20), read-out: t1/2, arithmetic mean (SD) (converted)", "result": 27, "unit": "h"}, {"measurement": "half-life", "setting": "[1]; ripretinib 50 mg single oral dose + itraconazole 200 mg QD, healthy participants (N = 20), read-out: t1/2, geometric mean (CV%) (converted)", "result": 24, "unit": "h"}, {"measurement": "Tmax", "setting": "[1]; [4]", "result": 4, "unit": "h"}, {"measurement": "Tmax", "setting": "[1]; [5]", "result": 3, "unit": "h"}, {"measurement": "Increase in exposure with daily itraconazole coadministration", "setting": "[1]; ripretinib 50 mg + itraconazole 200 mg QD vs ripretinib alone", "result": "up to 99%"}, {"measurement": "Time postdose that mean plasma concentration remained above the LLOQ", "setting": "[1]; ripretinib 50 mg alone (itraconazole study)", "result": 96, "unit": "h"}, {"measurement": "CL/F, arithmetic mean (SD)", "setting": "[1]; [4]", "result": "7 (3) L/h"}, {"measurement": "CL/F, geometric mean (CV%)", "setting": "[1]; [4]", "result": "6 (48) L/h"}, {"measurement": "CL/F, arithmetic mean (SD)", "setting": "[1]; [5]", "result": "13 (5) L/h"}, {"measurement": "CL/F, geometric mean (CV%)", "setting": "[1]; [5]", "result": "12 (42) L/h"}, {"measurement": "Geometric LS mean ratio of AUC0–t", "setting": "[1]; [6]", "result": 198, "unit": "%"}, {"measurement": "Geometric LS mean ratio of AUC0–∞ (90% CI)", "setting": "[1]; [6]", "result": "199 (174–227) %"}, {"measurement": "Geometric LS mean ratio of Cmax (90% CI)", "setting": "[1]; [6]", "result": "136% and 136 (116–159) %"}, {"measurement": "Geometric LS mean ratio of AUC0–∞ (90% CI)", "setting": "[1]; ripretinib 50 mg with itraconazole 200 mg QD relative to ripretinib alone, listed as ripretinib", "result": 199, "unit": "%"}, {"measurement": "Time postdose that mean plasma concentration remained above the LLOQ", "setting": "[1]; ripretinib 50 mg with itraconazole", "result": "up to 168 hours"}, {"measurement": "Concentration-corrected QT interval analysis", "setting": "[2]", "result": "did not suggest particular concern"}, {"measurement": "Dose proportionality of AUC", "setting": "[3]; [7]", "result": "generally proportional to dose"}, {"measurement": "Dose proportionality of Cmax", "setting": "[3]; [7]", "result": "less than dose proportional"}, {"measurement": "Time to maximum plasma concentrations", "setting": "[3]; cancer patients, after a single dose", "result": "approximately 4 hours"}, {"measurement": "Time to reach steady-state conditions", "setting": "[3]; cancer patients", "result": "≤ 14", "unit": "days"}, {"measurement": "Accumulation ratio", "setting": "[3]; once-daily dosing of 150 mg", "result": "approximately 1.7"}, {"measurement": "Maximum tolerated dose", "setting": "[3]; patients with cancer, doses up to ripretinib 200 mg twice daily", "result": "not reached"}, {"measurement": "Steady-state PK exposure, 150 mg twice daily compared with 150 mg once daily", "setting": "[3]; patients", "result": "approximately 2 fold"}]}
